The values that follow come from US12673039B2, “Methods of inducing autophagy using coumarin derivatives and related compounds” (Buck Institute for Research on Aging, priority 2019, dated 2026).

For the experiment, the target named is T1, DAF-12 (Caenorhabditis elegans, UniProt G5EFF5).
T1 construct: expressed in transfected cells; host or cells: HEK293T
T1 sequence (G5EFF5 516-753 limits assumed): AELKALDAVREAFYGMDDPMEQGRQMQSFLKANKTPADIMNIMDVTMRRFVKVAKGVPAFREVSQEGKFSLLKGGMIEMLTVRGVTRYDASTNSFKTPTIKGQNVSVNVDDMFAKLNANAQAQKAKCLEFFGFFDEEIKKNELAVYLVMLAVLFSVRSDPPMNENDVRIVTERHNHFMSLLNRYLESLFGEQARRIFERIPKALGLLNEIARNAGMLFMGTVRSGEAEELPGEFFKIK
The experiment in a line: Mammalian one-hybrid DAF-12 activity assay (HEK293T). The experiment is classed as cell-based, human. On the procedure: FIG. 10 illustrates that coumarin 106 (“C1”, “AIC106”) inhibits induction of the worm FXR homologue DAF-12. The ability of C1 (10 μM) to inhibit activation of the FXR worm homologue DAF-12 by its ligand dafachronic acid (Df acid); values are fold activity induction versus untreated controls; ****p<0.01 versus GW; **p<0.05 versus GW.
FIG. 22, panels A-H: AIC106-induced HLH-30 expression is mediated by the nuclear hormone receptor DAF-12. Panel A) The upstream promoter region (2 kB) of hlh-30 was analyzed by JASPAR CORE database to determine DAF-12 binding sites (1: SEQ ID NO:1, 2: 1: SEQ ID NO:2, 3: SEQ ID NO:3, 4: SEQ ID NO:4, 5: SEQ ID NO:5, 6: SEQ ID NO:6, 7: SEQ ID NO:7, 8: SEQ ID NO:8, 9: SEQ ID NO:9, 10: SEQ ID NO:10, 11: SEQ ID NO:11, 12: SEQ ID NO:12). Panel B) Relative fold change in mRNA of hlh-30 compared to DMSO-control was quantified using qRT-PCR in young adult wild-type N2 and daf-12(rh61rh411) worms post-24 hours treatment with AIC106. [N=3 independent experiments (mean±SD). **p<0.01, by one-way ANOVA with Sidak's multiple comparisons test]. Panel C) Effects of AIC106 on DAF-12 activity was determined in a mammalian one-hybrid assay by quantifying changes in the luciferase activity of DAF-12 ligand (dafachronic acid, DA) induced treatment. [N=3 independent experiments (mean±SD). *p<0.05 **p<0.01 and ***p<0.001, by one-way ANOVA with Tukey's multiple comparisons test]. Panel D) Schematic diagram showing that addition of AIC106 or inhibition of DAF-12 ligand synthesis, which leads to un-liganded DAF-12 may result in enhanced HLH-30 expression. Panel E) Dafadine-A (DFA), a specific inhibitor of key enzyme required for synthesis of DAF-12 ligand induces HLH-30 expression. Immunoblot for GFP was performed on protein lysate of HLH-30; GFP (MAH235) young adult worms treated with DFA or DMSO-control for 24 hours. Panel F) Protection against mitochondrial toxin (FCCP) was determined by quantifying survival of young adult worms treated 24 hours with DFA or DMSO-control. [N=3 independent experiments (mean±SD). **p<0.01, by two-way ANOVA with Tukey's multiple comparisons test]. Panel G) Motor function in day-7 NL5901 worms were quantified by scoring number of thrashes for an individual worm over the period of 30 seconds (dots) in DFA and DMSO-control treatment. [N=3 independent experiments (mean±SD). **p<0.01, by unpaired t-test] […] [N=3 independent experiments (mean±SD). *p<0.05, by one-way ANOVA with Tukey's multiple comparisons test].
FIG. 29, panels A-C: AIC106 modulates DAF-12 activity. […] Luciferase activity was measured to quantify DAF-12 activity. Panel C) Dose dependent increase in DAF-12 activity after treatment with known DAF-12 ligand, dafachronic acid (DA) was determined by quantifying luciferase activity. […]

On to `O=c1oc2c3c4c(cc2c2c1CCC2)CCCN4CCC3` [C1, 2,3,6,7,10,11-Hexahydro-1H,5H-cyclopenta(3,4)(1)benzopyrano(6,7,8-ij)quinolizin-12(9H)-one], for which the “activation of DAF-12 elicited by dafachronic acid” value (C1 10 μM (FIG. 10)) was “inhibit activation of the FXR homologue DAF-12”. In addition, the “DAF-12 activity (luciferase)” value (compound alone) is on record as “did not increase DAF-12 activity”. Besides, the “DA-induced DAF-12 activity” value (in combination with dafachronic acid) is “dose-dependent suppression of DA-induced DAF-12 activity”.
